Measurements reported in ChEMBL document CHEMBL1201862, “PubChem BioAssay data set” (2004).
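Grown in 96-well plates, cells were treated for 48 hours with each compound at five concentrations. Insufficient inhibition: endpoint recorded as highest concentration tested. Abbreviation: GI50, concentration required for 50% inhibition of growth.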 Activity calls are given as the source filed them. Rule as the data show it: active = GI50 up to about 1.1 µM and inactive = higher.

Experiments:
Assay in all cases: NCI anticancer screen, dose series, 48 h
MCF7 = tested on: MCF7
COLO 205 = tested on: COLO 205
NCI-H226 = tested on: NCI-H226
RPMI-8226 = tested on: RPMI-8226
OVCAR-8 = tested on: OVCAR-8
SK-OV-3 = tested on: SK-OV-3
HOP-92 = tested on: HOP-92
OVCAR-4 = tested on: OVCAR-4
KM12 = tested on: KM12
PC-3 = tested on: PC-3
U-251 = tested on: U-251
IGROV-1 = tested on: IGROV-1
NCI-H522 = tested on: NCI-H522
RXF 393 = tested on: RXF 393
SW-620 = tested on: SW-620
A498 = tested on: A498
SR = tested on: SR
NCI-H23 = tested on: NCI-H23
ACHN = tested on: ACHN
CCRF-CEM = tested on: CCRF-CEM

SMILES	GI50 (MCF7)	GI50 (COLO 205)	GI50 (NCI-H226)	GI50 (RPMI-8226)	GI50 (OVCAR-8)	GI50 (SK-OV-3)	GI50 (HOP-92)	GI50 (OVCAR-4)	GI50 (KM12)	GI50 (PC-3)	GI50 (U-251)	GI50 (IGROV-1)	GI50 (NCI-H522)	GI50 (RXF 393)	GI50 (SW-620)	GI50 (A498)	GI50 (SR)	GI50 (NCI-H23)	GI50 (ACHN)	GI50 (CCRF-CEM)
C/C(=N\Nc1nc2ccccc2s1)c1cccc[n+]1[O-]	23.2 µM (inactive)	32.2 µM (inactive)	55.2 µM (inactive)	41.1 µM (inactive)	30.2 µM (inactive)	37.4 µM (inactive)	13.5 µM (inactive)	86.3 µM (inactive)	30.1 µM (inactive)	33 µM (inactive)	47 µM (inactive)	21.7 µM (inactive)	26.7 µM (inactive)	66.2 µM (inactive)	32.7 µM (inactive)	> 100 µM (inactive)	23.9 µM (inactive)	47.3 µM (inactive)	37.1 µM (inactive)	25.2 µM (inactive)
Nc1ccc(C(=O)O)cc1.Nc1nc(N)c2nc[nH]c2n1	3.97 µM (inactive)	25.9 µM (inactive)	> 100 µM (inactive)	12.1 µM (inactive)	22.1 µM (inactive)	34.8 µM (inactive)	79.3 µM (inactive)	26.4 µM (inactive)	22.3 µM (inactive)	22.3 µM (inactive)	43.9 µM (inactive)	29.9 µM (inactive)	17.8 µM (inactive)	12.1 µM (inactive)	25.7 µM (inactive)	13.6 µM (inactive)	33.2 µM (inactive)	23.5 µM (inactive)	17 µM (inactive)	19.6 µM (inactive)
CCC(C#N)N(Cc1cccc(CN(C(C)=O)C(C#N)CC)c1)C(C)=O (stereo not given)	> 100 µM (inactive)	> 100 µM (inactive)	44.5 µM (inactive)	> 100 µM (inactive)	> 100 µM (inactive)	> 100 µM (inactive)	6.56 µM (inactive)	31.4 µM (inactive)	> 100 µM (inactive)	> 100 µM (inactive)	> 100 µM (inactive)	> 100 µM (inactive)	> 100 µM (inactive)	> 100 µM (inactive)	> 100 µM (inactive)	> 100 µM (inactive)	77.8 µM (inactive)	> 100 µM (inactive)	> 100 µM (inactive)	> 100 µM (inactive)
Nc1nc(Cl)cc(NCC2(CO)CCCC2)n1	75.2 µM (inactive)	> 100 µM (inactive)	> 100 µM (inactive)	> 100 µM (inactive)	> 100 µM (inactive)	> 100 µM (inactive)	52.5 µM (inactive)	19 µM (inactive)	> 100 µM (inactive)	> 100 µM (inactive)	> 100 µM (inactive)	> 100 µM (inactive)	49.1 µM (inactive)	> 100 µM (inactive)	> 100 µM (inactive)	> 100 µM (inactive)	> 100 µM (inactive)	65.6 µM (inactive)	> 100 µM (inactive)	> 100 µM (inactive)
O=c1c2cc(I)ccc2nc(SCc2nncs2)n1Cc1ccccc1	35.6 µM (inactive)	20.2 µM (inactive)	23.8 µM (inactive)	6.76 µM (inactive)	36.5 µM (inactive)	43.7 µM (inactive)	3.34 µM (inactive)	12.6 µM (inactive)	11.8 µM (inactive)	13.8 µM (inactive)	16.9 µM (inactive)	3.89 µM (inactive)	4.78 µM (inactive)	13.6 µM (inactive)	> 100 µM (inactive)	19.7 µM (inactive)	15.4 µM (inactive)	25.6 µM (inactive)	9.33 µM (inactive)	5.71 µM (inactive)
c1ccc(C2=Nc3cccc4cccc(c34)N2)cc1	40.8 µM (inactive)	18.6 µM (inactive)	> 78.3 µM (inactive)	22.6 µM (inactive)	35.5 µM (inactive)	> 100 µM (inactive)	24.4 µM (inactive)	18.7 µM (inactive)	28.3 µM (inactive)	22.8 µM (inactive)	> 100 µM (inactive)	> 54.6 µM (inactive)	12.2 µM (inactive)	22 µM (inactive)	20.4 µM (inactive)	> 100 µM (inactive)	9.48 µM (inactive)	> 60.5 µM (inactive)	26.2 µM (inactive)	3.82 µM (inactive)
COc1cc2c(/C=C3/C(=O)Nc4cccc(Cl)c43)c(Cl)[nH]c2cc1C	2.05 µM (inactive)	1.95 µM (inactive)	1.44 µM (inactive)	1.93 µM (inactive)	2.54 µM (inactive)	2.21 µM (inactive)	8.17 µM (inactive)	0.078 µM (active)	1.7 µM (inactive)	2.68 µM (inactive)	1.78 µM (inactive)	1.59 µM (inactive)	2.32 µM (inactive)	2 µM (inactive)	2.24 µM (inactive)	8.67 µM (inactive)	1.41 µM (inactive)	2.51 µM (inactive)	2.67 µM (inactive)	1.56 µM (inactive)
CCN(CC)C(=O)CCCCCCCCC1CO1 (stereo not given)	> 100 µM (inactive)	> 100 µM (inactive)	> 100 µM (inactive)	> 100 µM (inactive)	> 100 µM (inactive)	> 100 µM (inactive)	> 100 µM (inactive)	> 100 µM (inactive)	> 100 µM (inactive)	> 100 µM (inactive)	> 100 µM (inactive)	> 100 µM (inactive)	> 100 µM (inactive)	> 100 µM (inactive)	> 100 µM (inactive)	> 100 µM (inactive)	> 100 µM (inactive)	> 100 µM (inactive)	> 100 µM (inactive)	> 100 µM (inactive)
O=C(O)C1C2C=CC(O2)C1C(=O)Nc1ncccn1 (stereo not given)	> 100 µM (inactive)	> 100 µM (inactive)	> 100 µM (inactive)	> 100 µM (inactive)	> 100 µM (inactive)	> 100 µM (inactive)	> 100 µM (inactive)	> 100 µM (inactive)	> 100 µM (inactive)	> 100 µM (inactive)	> 100 µM (inactive)	> 100 µM (inactive)	> 100 µM (inactive)	> 100 µM (inactive)	> 100 µM (inactive)	> 100 µM (inactive)	> 100 µM (inactive)	> 100 µM (inactive)	> 100 µM (inactive)	> 100 µM (inactive)
C=C1C[C@@H](O)[C@@H](Br)C(C)(C)[C@]12CCC(C)(Br)C(Cl)C2 (stereo not given in full)	> 50 µM (inactive)	0.791 µM (active)	41.3 µM (inactive)	43.9 µM (inactive)	> 50 µM (inactive)	> 50 µM (inactive)	> 50 µM (inactive)	> 50 µM (inactive)	1.07 µM (active)	0.8 µM (active)	> 50 µM (inactive)	> 50 µM (inactive)	> 50 µM (inactive)	> 50 µM (inactive)	> 50 µM (inactive)	> 50 µM (inactive)	> 50 µM (inactive)	> 50 µM (inactive)	> 50 µM (inactive)	> 50 µM (inactive)
COc1ccc(C2SCC(=O)N2NC(=O)C(C)Oc2ccccc2C)cc1 (stereo not given)	54.1 µM (inactive)	> 100 µM (inactive)	> 100 µM (inactive)	41.5 µM (inactive)	> 100 µM (inactive)	> 100 µM (inactive)	29.2 µM (inactive)	> 100 µM (inactive)	> 100 µM (inactive)	> 100 µM (inactive)	85.7 µM (inactive)	> 100 µM (inactive)	56.6 µM (inactive)	> 100 µM (inactive)	> 100 µM (inactive)	46 µM (inactive)	28.2 µM (inactive)	55.6 µM (inactive)	68.5 µM (inactive)	65.2 µM (inactive)
